The subject of series [1] is human red blood cells. The series can be described thus: Hemolysis assay. The class given is cell-based. The conditions noted are these: concentrations of up to 100 μg/ml, 37° C., 30 min. The procedure:
Red blood cells (RBC) were obtained from citrated human blood by centrifugation (1,500×g; 10 min), washed three times with isotonic 20 mM phosphate-NaCl buffer (pH 7.4), and suspended in the same buffer at a concentration equivalent to 5% of the normal hematocrit. Forty-microliter aliquots of this RBC suspension were added to 0.96 ml of Pep19-4LF dilutions prepared in the same isotonic phosphate solution, incubated at 37° C. for 30 min, and centrifuged (1,500×g, 10 min). The supernatants were analyzed spectrophotometrically (with absorbance at 543 nm) for hemoglobin, and results were expressed as the percentage released with respect to sonicated controls (100% release) or controls processed without peptide (0% release).

The subject of series [2] is HS-rats. The class given is in vivo. The procedure: This study was carried out on 46 male Wistar rats (Charles River Ltd, Margate, UK) weighing 230-350 g receiving a standard diet and water ad libitum. Hemorrhagic shock and quantification of organ injury and dysfunction were performed as described previously in Sordi R et al (2017) Ann Surg, 265(2):408-417. Rats were anesthetized by sodium thiopentone (120 mg/kg i.p. for induction, followed by 10 mg/kg i.v. for maintenance). Cannulation of the trachea, femoral artery (for measuring blood pressure), and carotid arteries (for blood withdrawal), jugular vein (for drug administration), and bladder (for collecting urine) were performed. Blood (up to 1 mL/min) was withdrawn via the cannula inserted in the carotid artery in order to achieve a fall in mean arterial pressure (MAP) to 27 to 32 mmHg. Thereafter, MAP was maintained at this level for a period of 90 min either by further withdrawal of blood during the compensation phase or administration shed blood during the decompensation phase. At 90 min after initiation of hemorrhage (or when 25% of the shed blood had to be re-injected to sustain MAP at 27 to 32 mmHg), animals were resuscitated with the remaining shed blood (mixed with 100 IU/mL heparinized saline) (over a period of 5 min) plus a volume of Ringer's lactate identical to the volume of blood spent during decompensation. During the last 3 h of resuscitation, urine was obtained for the estimation of creatinine clearance. Then, blood samples were collected via the carotid artery for measurement of lactate (Accutrend Plus Meter, Roche Diagnostics, West Sussex, UK) and organ injury/dysfunction parameters. Under deep anesthesia, the heart was removed to terminate the experiment. Blood samples were centrifuged to separate serum, which was used for the determination of urea, creatinine, aspartate aminotransferase (AST), alanine aminotransferase (ALT), lipase, amylase and creatine kinase (CK) by an external contract research facility (IDEXX Laboratories Ltd, West Yorkshire, UK) in a blinded fashion. In addition, lung, kidney and liver samples were taken and stored at −80° C. for further analysis. Sham-operated rats were used as control and underwent identical surgical procedures, but without hemorrhage or resuscitation. Blood pressures during the experiment were measured by Powerlab®, and recorded and analyzed by Labchart® (AD instruments Ltd, Dunedin, New Zealand).
The following groups were studied: Sham+vehicle (n=11), sham+Pep19-4LF (n=6), HS+vehicle (n=12), HS+Pep19-4LF-LD (n=8), HS+Pep19-4LF-HD (n=8), HS+Pep19-2.5-HD (n=8). Rats were administered vehicle (saline 1.5 ml/kg/h) or Pep19-4LF (low dose (LD)=66 μg/kg×h; high dose (HD)=333 μg/kg×h) or Pep19-2.5 (high dose (HD)=333 μg/kg×h) continuously for 4 h after resuscitation using infusion pump for rodents (PHD2000, 70-2000; Harvard apparatus Massachusetts, U.S). 11 rats were excluded from data analysis due to surgical/technical issues (n=5) prior to onset of HS and death during resuscitation (n=6). The doses of Pep19-4LF and Pep19-2.5 used in this study were based on efficacy seen in previous in vitro and in vivo studies (Schuerholz T et al (2013) Crit Care, 17(1):R3; Tejada G Md et al (2015) Sci Rep, 5:14292; Martin L et al (2015) PLoS One, 10(5):e0127584; Martin L et al (2015) PLoS One, 10(11):e0143583).

For series [3] the following is noted: Tejada G Md et al (2015); cited from earlier work.
The conditions of series [4]: therapeutic doses; cited from earlier work.
Setting [5] is: HS-rats, high dose 333 μg/kg×h i.v., 4 h after HS, vs vehicle.

Here are results for 3 substances from patent US20190092814A1, “Peptide” (priority 2017, published 2019).

Where no end group is shown, it is not given here.

For the substance “GKKYRRFRWKFKGKLFLFG-NH2 [Pep19-4LF, GKKYRRFRWKFKGKLFLFG]”, the “hemolysis (hemoglobin release)” value in series [1] is recorded as “no considerable degree of hemolysis”. Also, the “MAP in sham-operated rats” value in series [2] (sham-operated rats, high dose 333 μg/kg×h) is listed as “had no effect”.

For the substance “LL-37: cathelicidin-derived human AMP (host-defence/antimicrobial peptide) [reference compound]”, in series [3], the “effects of LPS and lipoproteins” value is “neutralize”. Moreover, in series [4], the “toxicity limiting therapeutic use in man” value is “systemic toxicity”.

As for “GCKKYRRFRWKFKGKFWFWG (20-amino acid peptide, Pep19-2.5) [20-mer linear synthetic antimicrobial peptide based on Limulus anti-LPS factor]”, in series [3], the “effects of LPS and lipoproteins” value is recorded as “neutralize”. Besides, in series [2] (HS-rats), the “liver injury caused by HS” value was “significantly attenuated”, the “pancreatic injury caused by HS” value is listed as “significantly attenuated” and the “renal dysfunction caused by HS” value is “significantly attenuated”. Also, in series [2] (HS-rats, high dose 333 μg/kg×h i.v. continuously for 4 h after resuscitation, vs HS+vehicle), the “decline in MAP during the resuscitation period” value is reported as “significantly attenuated”. For the same substance, in series [2] (setting [5]), the “organ injury and dysfunction caused by HS” value is “significantly attenuated”; the “rise in lactate caused by HS” value is listed as “significantly attenuated”.
